Laboratory results reported in patent US10457676B2, “Capsazepine analogs for the treatment of cancer and other proliferative diseases” (THE BOARD OF REGENTS OF THE UNIVERSITY OF TEXAS SYSTEM, priority 2014, dated 2019).

Assays:
HSC3 cells = test: Cell viability with antioxidant N-acetyl-cysteine (reversal, ROS mechanism); format: cell-based, human; settings: 10 μM, 24 hours
Experimental: OSCC cell lines, SCC4, SCC25, and HSC3 were derived from human primary tongue OSCC. SCC4 and SCC25 cells were obtained from ATCC (Rockville, Md.). HSC3 cells were kindly provided by Dr. Brian Schmidt (NYU) (Saghafi, et al., 2011). Breast cancer cells (MDA231), Prostate cancer cells (PC3), and Non-Small Cell Lung Cancer cells (H460) were obtained from ATCC (Rockville, Md.). Cells were maintained in DMEM (Gibco, Carlsbad, Calif.) containing 10% FBS at 37° C. in 5% CO2. Immortalized keratinocytes (OKF6-TERT2; Harvard Medical School Cell Culture Core Collection, Cambridge, Mass.) were used as control epithelial cells.
Cytotoxicity was assessed using the Cell Titer 96® Aqueous Non-Radioactive Cell Proliferation Assay (Promega, Madison, Wis.) according to manufacturer's protocol. Absorbance values of test groups were normalized against controls (n=4).
ROS levels in OSCC cell lines were examined by flow cytometry using 2,7-dichlorodihydrofluorescein diacetate (DCF-DA; Sigma-Aldrich, St. Louis, Mo.). Cells (3×10^5) were plated in 12-well plates and incubated for 30 min with DCF-DA at 37° C. then treated with 30 μM of the appropriate capsazepine derivative or capsazepine using phenol free media with and without 10 mM NAC. Treated cells were incubated for 1 h at 37° C., harvested, washed twice, and analyzed by FACS.

oral cancer tumors = settings: direct injection into tumors; cited from earlier work
SCC4 xenografts = test: OSCC mouse xenograft model, intra-tumor injection; format: in vivo, athymic nude mice
Experimental: All studies were approved by the UTHSCSA Institutional Animal Care and Use Committee. Six week-old female athymic nude mice (Harlan, Indianapolis, Ind.) were used in a laminar air-flow cabinet under pathogen-free conditions. They were provided with a 12 h light/dark schedule at controlled temperature and humidity with food and water ad libitum. Mice were acclimated for one week prior to study initiation.
Mice were injected subcutaneously in the right flank with 2×10^6 SCC4 cells in 0.1 mL of sterile PBS. Four weeks post-inoculation, tumors grew to an average volume of 150 mm^3. Mice were stratified into two experimental groups (n=5 per group), which received the following treatments as intra-tumor injections: group A, vehicle control; group B, capsazepine or capsazepine derivative (analog) treatment. Treatments were repeated every other day for a total of 14 days.
Capsazepine and novel capsazepine analogs stock solutions (20 μg/μL, 100% Ethanol) were diluted to 5% Ethanol in sterile saline generating a final concentration of 1 μg/μL. SCC4 xenografts received intra-tumor injections of 40 μg CIDD24 or 40 μg capsazepine every other day (FIG. 4) for two weeks. In a second study SCC4 xenografts were injected with 80 μg CIDD24 or 80 μg CIDD111 every other day for two weeks (FIG. 5). Control xenografts received intra-tumor injections with vehicle control (5% Ethanol in sterile saline). Mice were monitored daily for tumor growth (using digital calipers), cachexia, and weight loss. Body temperature was monitored for 24 h following treatments. Tumor volumes were calculated by the elliptical formula: ½(Length×Width^2) (Jensen, et al., 2008).
Statistical analysis was performed using GraphPad Prism4 (San Diego, Calif.). Experiments were performed in triplicate and results are represented as means±SD except when indicated. Cytotoxicity assays of cell viability were analyzed by one-way ANOVA and Bonferroni's post hoc test (n=4). Statistical analyses of tumor growth were made using analysis of variance with repeated measures with Bonferroni's post hoc test (n=5). A p value less than 0.05 was considered statistically significant.

[1] = SCC4 tumors, 40 μg intra-tumor every other day for two weeks, n=5
[2] = SCC4 tumors, 80 μg every other day for two weeks, p<0.001

| SMILES | cell growth inhibition with 10 mM N-acetyl-cysteine added (HSC3 cells) | reduction in tumor growth compared to vehicle control (SCC4 xenografts; [1]) | reduction in tumor growth compared to vehicle control (SCC4 xenografts; [2]) | also measured |
| --- | --- | --- | --- | --- |
| Oc1cc2c(cc1O)CN(C(=S)NCCc1ccc(Cl)cc1)CCC2 [capsazepine] | reversed | ~50% | – | tumor volume after administration (oral cancer tumors): reduction of tumor volume |
| Oc1cc2c(cc1O)C(c1ccccc1)N(C(=S)NCCc1ccc(Cl)cc1Cl)CC2 (centres unmarked) [CIDD 118, N-[2-(2,4-dichlorophenyl)ethyl]-6,7-dihydroxy-1-phenyl-1,2,3,4-tetrahydroisoquinoline-2-carbothioamide] | reversed | – | – | – |
| Oc1cc2c(cc1O)C(c1ccccc1)N(C(=S)NCc1ccccc1)CC2 (centres unmarked) [CIDD111, N-benzyl-6,7-dihydroxy-1-phenyl-1,2,3,4-tetrahydroisoquinoline-2-carbothioamide] | – | – | significant reduction in tumor growth | efficacy compared with CIDD24 (SCC4 xenografts; SCC4 tumors, 80 μg every other day for two weeks, no significant difference in potency): slightly more effective than CIDD24 |
| Oc1cc2c(cc1O)C(c1ccccc1)N(C(=S)NCCc1ccc(Cl)cc1)CC2 (centres unmarked) [CIDD 99, N-[2-(4-chlorophenyl)ethyl]-6,7-dihydroxy-1-phenyl-1,2,3,4-tetrahydroisoquinoline-2-carbothioamide] | reversed | – | – | – |
| Oc1cc2c(cc1O)CN(C(=S)NCCc1ccc(Cl)cc1)CC2 [CIDD24, N-[2-(4-chlorophenyl)ethyl]-6,7-dihydroxy-1,2,3,4-tetrahydroisoquinoline-2-carbothioamide] | – | 80% | significant reduction in tumor growth | tumor volume % change, difference between CIDD 24 and capsazepine (SCC4 xenografts; SCC4 xenografts, 40 μg (1 μg/μl), 10 day period, #=p<0.05): statistically significant difference |
| O=C(NCCc1ccc(Cl)cc1)N1CCc2cc(O)c(O)cc2C1 [CIDD25, N-[2-(4-chlorophenyl)ethyl]-6,7-dihydroxy-1,2,3,4-tetrahydroisoquinoline-2-carboxamide] | – | 50% | – | – |
